Measured values: patent US20030162759A1, “Aldosterone blocker therapy to prevent or treat inflammation-related disorders” (priority 2000, published 2003)
Values joined by “and” are separate entries in the source; they are usually repeats but may differ in a detail not shown here. Equal values may be shown once. “Also recorded” adds a separate entry of the source.

Columns and labels:
Assay type in all cases: in vivo, rat
[1] = test system: angiotensin II infused rats; assay: Assay A angiotensin II infusion model: systolic blood pressure by tail-cuff; conditions: Wistar rats, 1% NaCl, angiotensin II 25 ng/min sc; eplerenone 100 mpk; 4 weeks
Method: Assay A: In Vivo Angiotensin II Infusion Model
Male Wistar rats (n—50, 10/group; BW=200 g)
2. Angiotensin 11 (25 ng/min, sc via aizet minipump)
SBP measured by tail-cuff every week

[2] = test system: angiotensin II infused rats; assay: Assay A angiotensin II infusion model: heart histology (coronary vascular inflammation, myocardial injury); conditions: for Vascular inflammation and myocardial injury in the heart: angiotensin II infused rats, aldosterone given to adrenalectomized rats
osteopontin [3] = assay: Assay B aldosterone infusion model: osteopontin immunohistochemistry of hearts; conditions: aldosterone infused rats; eplerenone 100 mpk p.o.
Method: Assay B: In vivo Aldosterone Infusion Model Male Sprague Dawley rats (n=39; BW=250 g) […] Uni-nephrectomy performed during implantation of mini-pumps 2. Aldosterone ([…], sc via aizet minipump) 2. […] 1. […] Sacrifice after 4 weeks. Determination of osteopontin and COX-2 was performed by quantitative RT-PCR (Taqman). Osteopontin was also identified in the heart by immunohistochemistry.

[4] = test system: Transforming growth factor beta 1; assay: Assay C: TGF beta 1 mRNA in left ventricle (TaqMan); conditions: for TGF-β, Mean: group mean; for TGF-β: individual rats
Method: (§1) The procedure of Assay B was expanded upon in a further study. […] Myocardial tissue from animals in each treatment group was examined after 7, 14, or 30 days of treatment.
(§2) Potassium chloride supplementation was added to the saline solution in order to prevent the potential hypokalemia associated with aldosterone excess.
(§3) At the time of the surgery, an Alzet 2002 osmotic minipump (Alza Corp., Palo Alto, Calif.) containing either vehicle (9% ethanol/87% propylene glycol/4% dH2O) or 1.0 mg/mL d-aldosterone (Sigma Chemical, St. Louis, Mo.) was inserted subcutaneously at the nape of the neck. Aldosterone was administered at a dose of 0.75 g/hour. […] Animals were sacrificed from each group (n=8-13) after 7, 14, or 30 days of treatment.
Following exsanguination, hearts and kidneys were isolated, removed, rinsed in cold phosphate-buffered saline, and blotted dry. Kidneys were immediately bifurcated through the long axis with a razor blade and placed in 10% neutral buffered formalin (NBF, Richard-Allen Scientific, Kalamazoo, Mich.). For the hearts, the right ventricle (RV) was cut away from the left ventricle (LV), both ventricles were weighed using a Mettler AE163 balance (Mettler-Toledo, Inc., Hightstown, N.J.), and the RV was placed in 10% NBF. A 2 mm coronal slab of the LV apex was removed and frozen with dry ice/isopentane for analysis of gene expression and the remaining portion of the LV was placed in 10% NBF for fixation. Final wet trimming was completed after 3-4 days fixation where a second 2 mm coronal slab was removed for hydroxyproline analysis and a third 2 mm slab was removed from the equatorial region for histology.
(§4) The fluorogenic 5′-nuclease assay (TaqMan PCR) using Applied Biosystems' 7700 Sequence Detection System (Applied Biosystems, Foster City, Calif.) allowed for real time detection/quantitation of a specific gene by monitoring the increase in fluorescence of a gene-specific, dye-labeled oligonucleotide probe. Probes for target and reference genes were labeled at the 5′-end with a 6-carboxyfluorescein (6FAM) reporter dye and at the 3′-end with a 6-carboxy-N,N,N′,N′-tetramethylrhodamine (TAMRA) quencher dye. When the probe was annealed to the target gene, fluorescence of 6FAM was prevented by the close proximity of TAMRA. The exonuclease activity of Taq polymerase released the dyes from the oligonucleotide probe by displacing the probe from the target sequence resulting in fluorescence excitation in direct proportion to the amount of target message present. Data analysis was performed using the Sequence Detection System software from Applied Biosystems.
Primers and probes were designed using Oligo Primer Analysis Software, Version 5.0 (National Biosciences Inc. (NBI)-Wojciech Rychlik, Cascade, Colo.). Primers were synthesized by Life Technologies (Grand Island, N.Y.) and probes were synthesized by Applied Biosystems. Primer/probe sets were designed from known sequences of rat genes to be analyzed. All target gene values were normalized to a reference gene, constitutively expressed cyclophilin. Primer/probe sets sequences can be found in Table 8
RNA was extracted from frozen (−70° C.) left ventricle (LV) tissue (approximately 10-20 mg) using 1.5 mL RNA-STAT 60 according to manufacturer's instructions (Leedo Medical Laboratories, Inc., Houston, Tex.). Briefly, tissues were homogenized using a tissue homogenizer equipped with a 5 mm probe (Ultra-Turrax T8 Homogenizer, IKA Works, Inc. Wilmington, N.C.). Following homogenization, an equal volume of molecular grade chloroform (Sigma Chemical Co., St. Louis, Mo.) was incubated with periodic mixing for 10 min at room temperature. Samples were centrifuged at 12,000 g for 10 min and RNA was precipitated from the top layer by adding an equal volume of molecular grade isopropanol (Sigma Chemical Co.) followed by an overnight incubation at −80° C.

osteopontin [5] = assay: Assay C: osteopontin relative mRNA expression in heart (TaqMan); conditions: for Osteopontin, Mean / Osteopontin: mRNA; for Osteopontin, Mean: group mean; for Osteopontin: individual rats
Method: as §1, §2, §3, §4
All primers and probes were designed using Primer Express software supplied with the 7700 Sequence Detection System and synthesized by Applied Biosystems. Standard curves using 5-fold dilutions of total RNA (from 200 ng to 320 pg) were performed to determine the efficiency of each primer/probe set in the TaqMan reaction prior to the analysis of the experimental samples. Primer/probe sets were designed from known sequences of rat genes to be analyzed. All target gene values were normalized to a reference gene, constitutively expressed cyclophilin. Primer/probe set sequences can be found in Table 8.
RNA was extracted from frozen (−80° C.) rat heart tissue using the Totally RNA Isolation Kit (Ambion, Inc., Austin, Tex.). Tissue was crushed using a stainless steel mortar and pestle, which had been chilled to −80° C. and transferred to a dounce homogenizer (Kontes, Vineland, N.J.) containing 3-10 mL cold denaturation buffer. Tissue was homogenized and transferred to a sterile, 15 mL polypropylene centrifuge tube. An equal volume of phenol:chloroform:isoamyl alcohol (25:24:1) was added, samples were shaken vigorously for 1 min, and incubated on ice for at least 15 min. Samples were centrifuged for 30 min at 10,000 g. The aqueous phase was removed, 1/10 volume of a sodium acetate solution (3.0 M NaOAc pH 4.5) was added, samples were shaken or inverted for 10 seconds, and acid-phenol (premixed with isoamyl alcohol):chloroform (5:1, Ambion, Inc.) was added at an volume equivalent to the starting sample volume. Samples were shaken vigorously for 1 min, followed by a 15-min incubation on ice, and centrifuged for 30 min at 10,000 g. The aqueous phase removed and placed in a clean polypropylene tube. An equal volume of isopropanol (Sigma, St. Louis, Mo.) was added and the samples were mixed and incubated overnight at −20° C. The samples were centrifuged for 30 min at 10,000 g, the supernatant was removed and the RNA pellet was resuspended in DNAse/RNAse-free water. Samples were frozen at −80° C. for at least 2 hours, thawed on wet ice, and diluted for quantitation.

[6] = 7 days of treatment, listed as Aldosterone + salt
[7] = 7 days of treatment, listed as Eplerenone + aldosterone + salt
[8] = 14 days of treatment, listed as Eplerenone + aldosterone + salt
[9] = 30 days of treatment, listed as Eplerenone + aldosterone + salt

## C[C@]12CCC(=O)C=C1CC[C@@H]1[C@@H]2[C@@H](O)C[C@]2(C=O)[C@@H](C(=O)CO)CC[C@@H]12 [aldosterone]
[1]
  Systolic Blood Pressure: increased blood pressure
[2]
  Vascular inflammation and myocardial injury in the heart: restored the severe coronary and myocardial inflammation and injury
Osteopontin [3]
  Osteopontin expression in the heart (immunostaining): osteopontin was clearly identified in the media of coronary arteries
[4]; 30 days of treatment
  TGF-β, Mean: 1.33 AU
[4]; [6]
  TGF-β: 0.98 AU and 1.47 AU and 1.21 AU
[4]; 14 days of treatment, listed as Aldosterone + salt
  TGF-β: 0.55 AU and 1.27 AU and 0.56 AU
[4]; 30 days of treatment, listed as Aldosterone + salt
  TGF-β: 1.27 AU and 1.20 AU and 0.83 AU and 0.54 AU
Osteopontin [5]; 14 days of treatment
  Osteopontin, Mean: 6.56 AU
Osteopontin [5]; 30 days of treatment
  Osteopontin, Mean: 13.27 AU
Osteopontin [5]; [6]
  Osteopontin: 0.84 AU and 0.95 AU and 1.08 AU

## COC(=O)[C@@H]1CC2=CC(=O)CC[C@]2(C)[C@@]23O[C@@H]2C[C@@]2(C)[C@@H](CC[C@@]24CCC(=O)O4)[C@H]13 [eplerenone, Pregn-4-ene-7,21-dicarboxylic acid, 9,11-epoxy-17-hydroxy-3-oxo-, γ-lactone, methyl ester, (7α, 11α, 17β) -]
[1]
  Systolic Blood Pressure: Neither eplerenone nor adrenalectomy reduced blood pressure
[2]
  Vascular inflammation and myocardial injury in the heart: prevention by eplerenone (epoxymexrenone) of vascular inflammation in the heart
[2]; out of ten animals per group, angiotensin II/salt, 4 weeks, eplerenone 100 mpk
  Animals with vascular inflammatory lesions in the coronary arteries: only one of the ten
Osteopontin [3]
  Osteopontin expression in the heart (immunostaining): prevention by eplerenone of induction of osteopontin expression; also recorded: prevented the expression of osteopontin
[4]; 7 days of treatment
  TGF-β, Mean: 0.99 AU
[4]; 14 days of treatment
  TGF-β, Mean: 1.26 AU
[4]; 30 days of treatment
  TGF-β, Mean: 1.32 AU
[4]; [7]
  TGF-β: 0.80 AU (2×) and 0.81 AU and 0.51 AU and 0.61 AU and 0.84 AU
[4]; [8]
  TGF-β: 0.58 AU and 0.62 AU and 1.04 AU and 0.71 AU and 1.21 AU and 2.41 AU
[4]; [9]
  TGF-β: 1.00 AU and 1.40 AU and 0.96 AU and 1.93 AU and 0.89 AU
Osteopontin [5]; 7 days of treatment
  Osteopontin, Mean: 0.75 AU
Osteopontin [5]; 14 days of treatment
  Osteopontin, Mean: 2.94 AU
Osteopontin [5]; 30 days of treatment
  Osteopontin, Mean: 2.59 AU
Osteopontin [5]; [7]
  Osteopontin: 0.54 AU and 0.52 AU and 0.27 AU and 0.60 AU and 0.96 AU and 0.75 AU
Osteopontin [5]; [8]
  Osteopontin: 1.00 AU and 0.77 AU and 1.59 AU and 0.72 AU and 0.99 AU
Osteopontin [5]; [9]
  Osteopontin: 1.28 AU
Osteopontin [5]; time course 7, 14, 30 days, eplerenone 100 mg/kg/day
  Osteopontin mRNA expression in myocardium: significantly reduced; also recorded: inhibition of early time-course expression of myocardial osteopontin
